From patent US20160074553A1, “DRESSING FOR COMPROMISED WOUND HEALING” (CONSEJO SUPERIOR DE INVESTIGACIONES CIENTIFICAS (CSIC), priority 2012, published 2016)

Assays:
[1] = Thermogravimetric analysis (TGA) of polymers and nanoparticle systems; type: physicochemical
Protocol: The thermogravimetric analysis (TGA) was carried out under N2 atmosphere in TGA Q500 (TA) equipment between 25 and 600° C. with a heating rate of 10° C./min.
The products were characterized by ATR-FTIR (4000 to 600 cm−1), TGA (25 to 600° C. under nitrogen atmosphere at 10° C./min) and DSC (the scan was carried out at a constant rate of 10° C./min, with a N2 flow of 20 ml/min, with temperatures in the range of −20 to 180° C.) to determine the glass transition temperature of the NP. For the calculation of the Tg, the temperature at which half of the difference in specific heat between the vitreous amorphous and elastomer amorphous states is reached is taken, that is, Tg=½ ΔCp. This point corresponds to the inflection point of the change in slope in the thermogram of the second scan.

[2] = system: BaF32 cells; assay: BaF32 proliferation assay; type: cell-based
Protocol: The measurements of biological activity of the free and encapsulated bemiparin were carried out by cell proliferation assay. For this, BaF32 cells were used, which are a type of lymphocyte B, the cell signalling of which is mediated by the formation of a complex between the bemiparin, the FGF-2 and its corresponding FGFR1c receptor on the cell surface.
Bemiparin forms a ternary complex (FIG. 27) with the fibroblast growth factor (FGF-2) and its corresponding specific membrane receptor (FGFR1c) thus increasing the cellular signalling process corresponding to the proliferation process (Dillen, K., J. Vandervoort, G. Van den Mooter, and A. Ludwig. 2006. Evaluation of ciprofloxacin-loaded Eudragit® RS100 or RL100/PLGA nanoparticles. International Journal of Pharmaceutics 314 (1): 72-82; Eto, T. 2001. A review of the biological properties and clinical implications of adrenomedullin and proadrenomedullin N-terminal 20 peptide (PAMP), hypotensive and vasodilating peptides. Peptides 22 (11): 1693-1711). Given this property, an experiment was designed to verify that the encapsulated bemiparin maintains its biological activity. For this BaF32 cells were used, which are a type of lymphocyte B, the cell signalling of which is modulated by a by a specific bond between the FGF-2 and its corresponding FGFR1c receptor on the cell surface.

[3] = donated by ROVI pharmaceutical laboratories; cited from earlier work

- T10% (temperature at which 10% of the system has been degraded) [1]: 120 °C
Substance: bemiparin
- effect on cell proliferation / activity of the FGF-2 ([2]; FGF-2, FGFR1c): promoting cell proliferation
- dependence of the cellular response on the concentration of bemiparin ([2]; different concentrations of bemiparin): independent from the concentration of bemiparin used
- activity of bemiparin as supplied [3]: 111.3 IU/mg
